pIC50: −log10 of the molar value.
How the values were obtained:
[1] = molecular target: T1, Avi-KRAS G12D (1-169) GppNHp/RAF1 RBD-3xFLAG (52-151) (Homo sapiens, UniProt P01116, G12D); experiment: Raf1-KRAS G12D-GppNHP disruption HTRF assay (Biological Example 1); assay type: binding
T1 construct: Avi-KRAS G12D (1-169)
Outline: (§1)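 Protein mix, 1 h RT, 700 rpm; reagent mix, 1 h RT, 700 rpm; HTRF read. Buffer Tris pH 7.5/NaCl/MgCl2/BSA/Tween, 10% DMSO. Output % activity, DMSO = 100%.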

[2] = molecular target: T2, Avi-KRAS G12R (1-169) GppNHp/RAF1 RBD-3xFLAG (52-151) (Homo sapiens, UniProt P01116, G12R); experiment: Raf1-KRAS G12R-GppNHP disruption HTRF assay (Biological Example 1); assay type: binding
T2 construct: Avi-KRAS G12R (1-169)
T2 sequence (P01116 1-169 isoform P01116-2 G12R): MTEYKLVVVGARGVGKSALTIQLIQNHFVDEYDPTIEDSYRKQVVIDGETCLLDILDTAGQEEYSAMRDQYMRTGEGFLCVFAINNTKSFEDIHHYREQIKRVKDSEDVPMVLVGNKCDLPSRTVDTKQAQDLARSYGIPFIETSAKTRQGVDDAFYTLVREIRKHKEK
Outline: as §1

[3] = molecular target: T3, Avi-KRAS G12V (1-169) GppNHp/RAF1 RBD-3xFLAG (52-151) (Homo sapiens, UniProt P01116, G12V); experiment: Raf1-KRAS G12V-GppNHP disruption HTRF assay (Biological Example 1); assay type: binding
T3 construct: Avi-KRAS G12V (1-169)
T3 sequence (P01116 1-169 isoform P01116-2 G12V): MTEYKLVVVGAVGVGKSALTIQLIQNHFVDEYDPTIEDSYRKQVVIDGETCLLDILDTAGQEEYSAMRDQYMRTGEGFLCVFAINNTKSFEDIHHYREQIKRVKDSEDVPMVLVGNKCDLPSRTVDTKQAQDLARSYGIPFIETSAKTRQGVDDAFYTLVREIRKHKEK
Outline: as §1

[4] = molecular target: T4, Avi-KRAS WT (1-169) GppNHp/RAF1 RBD-3xFLAG (52-151) (Homo sapiens, UniProt P01116); experiment: Raf1-KRAS WT-GppNHP disruption HTRF assay (Biological Example 1); assay type: binding
T4 construct: Avi-KRAS WT (1-169)
T4 sequence (P01116 1-169 isoform P01116-2): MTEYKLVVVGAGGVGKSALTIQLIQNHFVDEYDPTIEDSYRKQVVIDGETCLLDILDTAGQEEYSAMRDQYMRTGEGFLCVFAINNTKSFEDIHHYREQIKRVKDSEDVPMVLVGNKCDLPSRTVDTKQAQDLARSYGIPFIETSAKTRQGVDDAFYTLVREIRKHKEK
Outline: as §1

GP2d cells (KRAS G12D) = experiment: Cell-based pERK HTRF assay in GP2d cell (Biological Example 2); settings: GP2d (KRAS G12D) cells, pERK HTRF
Outline: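 Phospho-ERK in lysed cells was detected by HTRF using Eu cryptate and d2 antibodies, read between 4 and 24 h at room temperature. Prior to lysis, KRAS G12D GP2d cells, seeded the day before in DMEM with 10% FBS, were exposed to compounds for 60 min. Compounds were tested as 9-point half-log curves from 1 μM or 100 nM top, with 0.25% DMSO.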

SW620 cells (KRAS G12V) = experiment: Cell-based pERK HTRF assay in SW620 cell (Biological Example 4); settings: pERK HTRF
Outline: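 SW620 seeded in RPMI/10% FBS, next day dosed 4 h (top 1 μM, half-log, 9 pts, 0.25% DMSO). Lysed, pERK by d2/Eu cryptate HTRF, 4–24 h RT, 615 nm read.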

[5] = KRAS G12D, GppNHp-loaded, class symbols
[6] = KRAS G12R, GppNHp-loaded, class symbols
[7] = KRAS G12V, GppNHp-loaded, class symbols
[8] = KRAS WT, GppNHp-loaded, class symbols
[9] = Homo sapiens, SW-620, SW620 (KRAS G12V) cells, class symbols
[10] = Homo sapiens, SW-620, SW620 (KRAS G12V) cells
[11] = KRAS G12D, GppNHp-loaded, Table 11
[12] = KRAS G12R, GppNHp-loaded, Table 11
[13] = KRAS G12V, GppNHp-loaded, Table 11
[14] = KRAS WT, GppNHp-loaded, Table 11

T1 sequence (P01116 1-169 isoform P01116-2 G12D): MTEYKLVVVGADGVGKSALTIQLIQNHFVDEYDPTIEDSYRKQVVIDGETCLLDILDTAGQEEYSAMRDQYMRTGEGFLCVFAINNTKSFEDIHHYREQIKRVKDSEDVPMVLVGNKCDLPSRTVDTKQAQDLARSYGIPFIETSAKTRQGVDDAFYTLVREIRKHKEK

| Structure (SMILES) | pIC50 ([1]; KRAS G12D-GppNHp/RAF1 RBD HTRF) | pIC50 ([2]; KRAS G12R-GppNHp/RAF1 RBD HTRF) | pIC50 ([3]; KRAS G12V-GppNHp/RAF1 RBD HTRF) | pIC50 ([4]; KRAS WT-GppNHp/RAF1 RBD HTRF) | pIC50 (GP2d cells (KRAS G12D); GP2d) | pIC50 (SW620 cells (KRAS G12V); [10]) | further results |
| --- | --- | --- | --- | --- | --- | --- | --- |
| CCN(c1nc(OC[C@@]23CCCN2C[C@H](F)C3)nc2c(F)c(-c3ccc(F)c4sc(N)c(C#N)c34)c(C(F)(F)F)cc12)[C@H]1C[C@@H](COC)N(C(=O)C2CC2)C1 (atropisomer, axis not shown) [Compound 650] | – | – | – | – | – | – | pIC50 [1, 5]: 6.00 to 7.00; pIC50 [2, 6]: 6.00 to 7.00; pIC50 [3, 7]: 6.00 to 7.00; pIC50 [4, 8]: 6.00 to 7.00; pIC50 (GP2d cells (KRAS G12D); GP2d, class symbols): > 7.00; pIC50 (SW620 cells (KRAS G12V); [9]): > 7.00 |
| N#Cc1c(N)sc2c(F)ccc(-c3c(C(F)(F)F)cc4c(N5C[C@H]6C[C@@H]5CS6(=O)=O)nc(OC[C@@]56CCCN5C[C@H](F)C6)nc4c3F)c12 [Compound 322] | 6.00 to 7.00 | 6.00 to 7.00 | 5.00 to 6.00 | 6.00 to 7.00 | > 7.00 | 6.00 to 7.00 | – |
| N#Cc1c(N)sc2c(F)ccc(-c3c(C(F)(F)F)cc4c(N5CCC[C@H](O)C5)nc(OC[C@@]56CCCN5C[C@H](F)C6)nc4c3F)c12 [Compound 236] | – | – | – | – | > 7.00 | > 7.00 | pIC50 [1, 11]: 6.00 to 7.00; pIC50 [2, 12]: 6.00 to 7.00; pIC50 [3, 13]: 6.00 to 7.00; pIC50 [4, 14]: 6.00 to 7.00 |
| N#Cc1c(N)sc2c(F)ccc(-c3c(C(F)(F)F)cc4c(N5CC6(CC6)C5)nc(OC[C@@]56CCCN5C[C@H](F)C6)nc4c3F)c12 [Compound 204] | – | – | – | – | 6.00 to 7.00 | 6.00 to 7.00 | pIC50 [1, 11]: 5.00 to 6.00; pIC50 [2, 12]: 5.00 to 6.00; pIC50 [3, 13]: 5.00 to 6.00; pIC50 [4, 14]: 5.00 to 6.00 |
| CN(c1nc(OC[C@@]23CCCN2C[C@H](F)C3)nc2c(F)c(-c3ccc(F)c4sc(N)c(C#N)c34)c(C(F)(F)F)cc12)[C@H]1CCS(=O)(=O)C1 (single isomer, unassigned) [Compound 220] | – | – | – | – | – | – | pIC50 [1, 11]: < 5.00; pIC50 [2, 12]: < 5.00; pIC50 [3, 13]: < 5.00; pIC50 [4, 14]: < 5.00; pIC50 (GP2d cells (KRAS G12D)): < 6.00; pIC50 (SW620 cells (KRAS G12V); SW620 (KRAS G12V) cells): < 6.00 |
| CCN(CC)C(=O)c1nn2c(c1C)CN(c1nc(OCC34CCCN3CC(F)C4)nc3c(F)c(-c4ccc(F)c5sc(N)c(C#N)c45)c(C(F)(F)F)cc13)CC2 (stereo not drawn) [Compound 740] | – | – | – | – | – | – | pIC50 [1, 5]: 6.00 to 7.00; pIC50 [2, 6]: 6.00 to 7.00; pIC50 [3, 7]: 6.00 to 7.00; pIC50 [4, 8]: 6.00 to 7.00; pIC50 (GP2d cells (KRAS G12D); GP2d, class symbols): > 7.00; pIC50 (SW620 cells (KRAS G12V); [9]): > 7.00 |
| CCN(c1nc(OC[C@@]23CCCN2C[C@H](F)C3)nc2c(F)c(-c3ccc(F)c4sc(N)c(C#N)c34)c(C(F)(F)F)cc12)[C@H]1CCN(C(=O)c2ncc(C)o2)C1 (atropisomer, axis not shown) [Compound 803] | – | – | – | – | – | – | pIC50 [1, 5]: > 7.00; pIC50 [2, 6]: 6.00 to 7.00; pIC50 [3, 7]: 6.00 to 7.00; pIC50 [4, 8]: 6.00 to 7.00; pIC50 (GP2d cells (KRAS G12D); GP2d, class symbols): > 7.00; pIC50 (SW620 cells (KRAS G12V); [9]): > 7.00 |
| CC(=O)N1CC[C@@H](N(C)c2nc(OC[C@@]34CCCN3C[C@H](F)C4)nc3c(F)c(-c4ccc(F)c5oc(N)c(C#N)c45)c(C(F)(F)F)cc23)[C@H]1C [Compound 326] | 6.00 to 7.00 | 6.00 to 7.00 | 5.00 to 6.00 | 6.00 to 7.00 | > 7.00 | 6.00 to 7.00 | – |

The next lines start with results.

| pIC50 ([1]; KRAS G12D-GppNHp/RAF1 RBD HTRF) | pIC50 ([2]; KRAS G12R-GppNHp/RAF1 RBD HTRF) | pIC50 ([3]; KRAS G12V-GppNHp/RAF1 RBD HTRF) | pIC50 ([4]; KRAS WT-GppNHp/RAF1 RBD HTRF) | pIC50 (GP2d cells (KRAS G12D); GP2d) | pIC50 (SW620 cells (KRAS G12V); [10]) | Structure (SMILES) | further results |
| --- | --- | --- | --- | --- | --- | --- | --- |
| 5.00 to 6.00 | 6.00 to 7.00 | 5.00 to 6.00 | 5.00 to 6.00 | > 7.00 | > 7.00 | C[C@@H]1Cn2nc(C(=O)N(C)C)cc2CN1c1nc(OC[C@@]23CCCN2C[C@H](F)C3)nc2c(F)c(-c3ccc(F)c4sc(N)c(C#N)c34)c(C(F)(F)F)cc12 [Compound 510] | – |
| 6.00 to 7.00 | 5.00 to 6.00 | 5.00 to 6.00 | 5.00 to 6.00 | > 7.00 | > 7.00 | CN(C)C(=O)[C@@H]1CN(c2nc(OC[C@@]34CCCN3C[C@H](F)C4)nc3c(F)c(-c4ccc(F)c5sc(N)c(C#N)c45)c(C(F)(F)F)cc23)CCO1 [Compound 472] | – |
| 5.00 to 6.00 | 5.00 to 6.00 | 5.00 to 6.00 | 5.00 to 6.00 | > 7.00 | > 7.00 | CC(=O)N1CCN(c2nc(OC[C@@]34CCCN3C[C@H](F)C4)nc3c(F)c(-c4ccc(F)c5sc(N)c(C#N)c45)c(C(F)(F)F)cc23)C2CC21 (stereo partly drawn) [Compound 358] | – |

Reference: patent US20260042764A1, “COMPOSITIONS AND METHODS FOR INHIBITION OF KRAS” (TheRas, Inc., priority 2022, published 2026)
